PubChem BioAssay (NCI)
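Cultured in 96-well plates, cells were exposed to test compound for 48 hours across five concentrations. Abbreviation: GI50, concentration required for 50% inhibition of growth. The concentration for full growth arrest is given as TGI.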

Tests used:
Experiment in all cases: inhibition of tumour cell growth, NCI panel, 48 h
RXF 393 renal = test system: RXF 393 renal
M14 melanoma = test system: M14 melanoma
HS 578T breast = test system: HS 578T breast
K-562 leukemia = test system: K-562 leukemia
RPMI-8226 leukemia = test system: RPMI-8226 leukemia
DU-145 prostate = test system: DU-145 prostate
OVCAR-8 ovarian = test system: OVCAR-8 ovarian
TK-10 renal = test system: TK-10 renal
SN12C renal = test system: SN12C renal
HOP-92 NSCLC = test system: HOP-92 NSCLC
CAKI-1 renal = test system: CAKI-1 renal
HCC-2998 colon = test system: HCC-2998 colon
CCRF-CEM leukemia = test system: CCRF-CEM leukemia
HCT-15 colon = test system: HCT-15 colon
UACC-62 melanoma = test system: UACC-62 melanoma
SK-MEL-28 melanoma = test system: SK-MEL-28 melanoma
A549 NSCLC = test system: A549 NSCLC
HOP-62 NSCLC = test system: HOP-62 NSCLC
SNB-19 CNS = test system: SNB-19 CNS
UO-31 renal = test system: UO-31 renal
SR leukemia = test system: SR leukemia
SF-539 CNS = test system: SF-539 CNS
A498 renal = test system: A498 renal
BT-549 breast = test system: BT-549 breast
SNB-75 CNS = test system: SNB-75 CNS
U251 CNS = test system: U251 CNS
MOLT-4 leukemia = test system: MOLT-4 leukemia
KM12 colon = test system: KM12 colon
MDA-MB-435 = test system: MDA-MB-435
NCI/ADR-RES ovarian = test system: NCI/ADR-RES ovarian
EKVX NSCLC = test system: EKVX NSCLC
HT29 colon = test system: HT29 colon
PC-3 prostate = test system: PC-3 prostate
SK-OV-3 ovarian = test system: SK-OV-3 ovarian
SK-MEL-2 melanoma = test system: SK-MEL-2 melanoma
SF-268 CNS = test system: SF-268 CNS
OVCAR-4 ovarian = test system: OVCAR-4 ovarian
UACC-257 melanoma = test system: UACC-257 melanoma
786-0 renal = test system: 786-0 renal
NCI-H226 lung = test system: NCI-H226 lung
IGROV1 ovarian = test system: IGROV1 ovarian
SF-295 CNS = test system: SF-295 CNS
T-47D breast = test system: T-47D breast
MALME-3M melanoma = test system: MALME-3M melanoma
NCI-H522 lung = test system: NCI-H522 lung
OVCAR-3 ovarian = test system: OVCAR-3 ovarian
ACHN renal = test system: ACHN renal
SK-MEL-5 melanoma = test system: SK-MEL-5 melanoma
COLO 205 colon = test system: COLO 205 colon
NCI-H23 lung = test system: NCI-H23 lung
HL-60(TB) leukemia = test system: HL-60(TB) leukemia
SW-620 colon = test system: SW-620 colon
HCT-116 colon = test system: HCT-116 colon
LOX IMVI melanoma = test system: LOX IMVI melanoma
OVCAR-5 ovarian = test system: OVCAR-5 ovarian
MDA-MB-231 breast = test system: MDA-MB-231 breast
NCI-H460 lung = test system: NCI-H460 lung
MCF7 breast = test system: MCF7 breast

COC(=O)c1c2c(c[n+]([O-])c1C)C(=O)C=C(NCc1ccccc1)C2=O
GI50 (RXF 393 renal): 197 nM
TGI (RXF 393 renal): 521 nM
GI50 (M14 melanoma): 161 nM
TGI (M14 melanoma): 315 nM
GI50 (HS 578T breast): 263 nM
TGI (HS 578T breast): 710 nM
GI50 (K-562 leukemia): 192 nM
TGI (K-562 leukemia): 1860 nM
GI50 (RPMI-8226 leukemia): 258 nM
TGI (RPMI-8226 leukemia): 843 nM
GI50 (DU-145 prostate): 172 nM
TGI (DU-145 prostate): 316 nM
GI50 (OVCAR-8 ovarian): 220 nM
TGI (OVCAR-8 ovarian): 787 nM
GI50 (TK-10 renal): 690 nM
TGI (TK-10 renal): 2090 nM
GI50 (SN12C renal): 156 nM
TGI (SN12C renal): 298 nM
GI50 (HOP-92 NSCLC): 287 nM
TGI (HOP-92 NSCLC): 822 nM
GI50 (CAKI-1 renal): 289 nM
TGI (CAKI-1 renal): 1120 nM
GI50 (HCC-2998 colon): 213 nM
TGI (HCC-2998 colon): 492 nM
GI50 (CCRF-CEM leukemia): 264 nM
TGI (CCRF-CEM leukemia): 955 nM
GI50 (HCT-15 colon): 151 nM
TGI (HCT-15 colon): 350 nM
GI50 (UACC-62 melanoma): 154 nM
TGI (UACC-62 melanoma): 304 nM
GI50 (SK-MEL-28 melanoma): 245 nM
TGI (SK-MEL-28 melanoma): 554 nM
GI50 (A549 NSCLC): 227 nM
TGI (A549 NSCLC): 564 nM
GI50 (HOP-62 NSCLC): 209 nM
TGI (HOP-62 NSCLC): 590 nM
GI50 (SNB-19 CNS): 281 nM
TGI (SNB-19 CNS): 954 nM
GI50 (UO-31 renal): 183 nM
TGI (UO-31 renal): 477 nM
GI50 (SR leukemia): 204 nM
GI50 (SF-539 CNS): 182 nM
TGI (SF-539 CNS): 353 nM
GI50 (A498 renal): 210 nM
TGI (A498 renal): 1050 nM
GI50 (BT-549 breast): 169 nM
TGI (BT-549 breast): 319 nM
GI50 (SNB-75 CNS): 166 nM
TGI (SNB-75 CNS): 309 nM
GI50 (U251 CNS): 255 nM
TGI (U251 CNS): 787 nM
GI50 (MOLT-4 leukemia): 203 nM
TGI (MOLT-4 leukemia): 497 nM
GI50 (KM12 colon): 222 nM
TGI (KM12 colon): 785 nM
GI50 (MDA-MB-435): 125 nM
TGI (MDA-MB-435): 255 nM
GI50 (NCI/ADR-RES ovarian): 237 nM
TGI (NCI/ADR-RES ovarian): 798 nM
GI50 (EKVX NSCLC): 205 nM
TGI (EKVX NSCLC): 507 nM
GI50 (HT29 colon): 211 nM
TGI (HT29 colon): 1420 nM
GI50 (PC-3 prostate): 208 nM
TGI (PC-3 prostate): 996 nM
GI50 (SK-OV-3 ovarian): 425 nM
TGI (SK-OV-3 ovarian): 1600 nM
GI50 (SK-MEL-2 melanoma): 171 nM
TGI (SK-MEL-2 melanoma): 363 nM
GI50 (SF-268 CNS): 263 nM
TGI (SF-268 CNS): 929 nM
GI50 (OVCAR-4 ovarian): 90.4 nM
TGI (OVCAR-4 ovarian): 225 nM
GI50 (UACC-257 melanoma): 148 nM
TGI (UACC-257 melanoma): 323 nM
GI50 (786-0 renal): 295 nM
TGI (786-0 renal): 1220 nM
GI50 (NCI-H226 lung): 338 nM
TGI (NCI-H226 lung): 1490 nM
GI50 (IGROV1 ovarian): 167 nM
TGI (IGROV1 ovarian): 389 nM
GI50 (SF-295 CNS): 154 nM
TGI (SF-295 CNS): 298 nM
GI50 (T-47D breast): 197 nM
TGI (T-47D breast): 653 nM
GI50 (MALME-3M melanoma): 42.3 nM
TGI (MALME-3M melanoma): 153 nM
GI50 (NCI-H522 lung): 189 nM
TGI (NCI-H522 lung): 509 nM
GI50 (OVCAR-3 ovarian): 41.3 nM
TGI (OVCAR-3 ovarian): 209 nM
GI50 (ACHN renal): 210 nM
TGI (ACHN renal): 579 nM
GI50 (SK-MEL-5 melanoma): 140 nM
TGI (SK-MEL-5 melanoma): 274 nM
GI50 (COLO 205 colon): 151 nM
TGI (COLO 205 colon): 372 nM
GI50 (NCI-H23 lung): 169 nM
TGI (NCI-H23 lung): 421 nM
GI50 (HL-60(TB) leukemia): 174 nM
TGI (HL-60(TB) leukemia): 445 nM
GI50 (SW-620 colon): 258 nM
TGI (SW-620 colon): 727 nM
GI50 (HCT-116 colon): 189 nM
TGI (HCT-116 colon): 586 nM
GI50 (LOX IMVI melanoma): 175 nM
TGI (LOX IMVI melanoma): 451 nM
GI50 (OVCAR-5 ovarian): 192 nM
TGI (OVCAR-5 ovarian): 390 nM
GI50 (MDA-MB-231 breast): 200 nM
TGI (MDA-MB-231 breast): 618 nM
GI50 (NCI-H460 lung): 215 nM
TGI (NCI-H460 lung): 476 nM
GI50 (MCF7 breast): 149 nM
TGI (MCF7 breast): 361 nM
